# Laboratory results: patent US20260217656A1, “Compounds Affecting KRAS” (UNIVERSITAT DE BARCELONA, priority 2022, published 2026)
# “Also recorded” adds a separate entry of the source.
# Legend:
# Format in all cases: cell-based, human
# DLD-1-KO cells [1] = assay: Cleaved caspase-3 Western blot, DLD-1-KO; settings: DLD-1-KO cells treated 34 h or 48 h
# Description: FIG. 6C is a blot showing extracts of DLD-1, DLD-1-KO and RPE cells at 34 h. and 48 h. DLD-1 cells treated with P14B for 36 h and 48 h were lysed and the expression of the apoptosis marker cleaved caspase-3 was analyzed by Western blot. Cells treated with the apoptosis inducer palmitic acid (PA) were used as a positive control.
# Proteins were resolved by SDS-PAGE, transferred onto PVDF membranes (Immobilon-P, Millipore) and Western blot was performed as previously described (Cabot et al, Oncogene 2021). […]
# Since both inhibition and sustained activation of RAS signaling are related to a decrease in cell survival, we analyzed the viability of the CRC cell lines DLD-1 (expressing oncogenic KRAS) and DLD-1-KO (oncogenic KRAS allele deleted), and the non-transformed cell line hTERT-RPE. […] The effect of P14B in DLD-1 cells cultured in 3D conditions was also determined. […]
# [2] = tested on: ERK and AKT in DLD-1 cells stably expressing HA-KRAS-G12V; assay: Western blot of AKT and ERK phosphorylation in DLD-1 cells stably expressing HA-KRAS-G12V; settings: serum-starved DLD-1 cells stably expressing HA-KRAS-G12V
# Source text: (§1) DLD-1 (KRASWT/G13D) (clone V15, #HD PAR-086) colorectal adenocarcinoma cell line and DLD-1 knockout of mutant KRAS allele, DLD-1 KO (KRASWT/−) (clone DWT7, #HD105-002), were obtained from Horizon Discovery Ltd. (Cambridge, UK). hTERT-RPE (KRASWT/WT) immortalized retinal pigment epithelial human cell line was obtained from the […] (ATCC). DLD-1 KO cells stably expressing HA-KRAS G12V were previously generated in our laboratory (Cabot et al., 2021). All cells were grown in DMEM-HAM s F12 (1:1) supplemented with 10% foetal bovine serum (Biological Industries, Israel), penicillin, streptomycin, and nonessential amino acids. Cells were tested once per month for mycoplasma contamination.
# Cells were seeded in a media containing 10% FBS for 24 hours and then they were serum starved (0.1% FBS) for the next 24 hours. Afterwards, they were incubated with the different compounds during the times specified in each figure. When indicated, also in order to activate downstream KRAS cell signalling, treatment for 10 minutes with EGF (50 ng/mL) (Sigma-Aldrich) was performed. […]
# We assessed the possibility that P14B favors RAS-effector binding and consequently increases downstream RAS signaling. […] The interaction was analyzed after 10 min of P14B treatment since P—C-RAF and P-MEK were observed after 15 min (FIG. 3C). […]
# DLD-1-KO cells [3] = assay: MTS cell viability assay, DLD-1-KO; settings: at approximately 80 μM
# Source text: as §1
# (§2) 10,000 cells in 50 µL of 10% FBS-containing medium, were cultured for 24 hours and then treated with the compounds (50 μL final volume) for 48 h hours in each well of a 96-well plate (100 μL final volume). MTS viability assay (CellTiter 96® Aqueous One Solution Cell Proliferation Assay, Promega G3580) was assessed following the company conditions. The absorbance of each well was measured with a multimode plate reader (Spark, Tecan) at 490 nm. The percentage of cell viability was calculated by dividing the absorbance of each well by the average absorbance of the control wells. […]
# [4] = tested on: Ras effectors ERK and AKT in DLD-1 cells; assay: Western blot of downstream RAS signaling (P-ERK, P-AKT, P-MEK) in serum-starved DLD-1 cells
# Source text: as §1
# Cells were seeded in a media containing 10% FBS for 24 hours and then they were serum starved (0.1% FBS) for the next 24 hours. Afterwards, they were incubated with the different compounds during the times specified in each figure. When indicated, also in order to activate downstream KRAS cell signalling, treatment for 10 minutes with EGF (50 ng/mL) (Sigma-Aldrich) was performed.
# Proteins were resolved by SDS-PAGE, transferred onto PVDF membranes (Immobilon-P, Millipore) and Western blot was performed as previously described (Cabot et al, Oncogene 2021). The following primary antibodies were used: anti-c-RAF (BD Transduction 610151, 1:500); anti-phospho-c-RAF S338 (Cell Signaling 9427, 1:500); anti-AKT (Cell Signaling 9272, 1:1000); anti-phospho-AKT T308 (Cell Signaling 4056, 1:1000); anti-phospho-MEK1/2 S221 (Cell Signalling […]); anti-p44/42 MAPK (ERK1/2) (Cell Signaling 9102, 1:2000); anti-phospho-p44/42 MAPK(ERK1/2) T202/Y204 (Cell Signaling 4370, 1:2000); anti-HA (Sigma-Aldrich H6908, 1:1000); anti-cleaved-caspase-3 (Asp175) (Cell Signaling 9661, 1:1000); HRP-coupled secondary antibodies used: goat anti-rabbit (BioRad 170-6515, 1:3000) or goat anti-mouse (BioRad 170 6516, 1:3000).
# For analysis of RAS signalling, cells were lysed in a buffer containing 67 mM Tris-HCl pH 6.8 and 2% SDS and then the samples were heated at 97° C. for 15 minutes. Protein concentration of the lysates was assessed using the Lowry method. An aliquot of […] of protein per sample was loaded onto the gels.
# We first analyzed the effect of P14 on the activation of downstream RAS signaling pathways (RAF/MEK/ERK and PI3K/AKT) in DLD-1 cells (CRC cells carrying one oncogenic KRAS allele). To this end, DLD-1 serum-starved cells (0.1% FCS) were treated with P14 (100 μM) at different times, and activation of AKT and ERK was evaluated by Western blot. […] As a 3-hour treatment was associated with major effects, we chose this duration for the subsequent experiments with the other compounds. Next, DLD-1 serum-starved cells were treated with P14A-P14C at 100 μM for 3 hours and activation of AKT and ERK was assessed as above. […] The kinetics of RAS downstream signaling was analyzed in P14B-treated cells compared to 10% FBS serum.
# hTERT-RPE cells = assay: MTS cell viability assay, hTERT-RPE; settings: non-transformed hTERT-RPE cells, at approximately 80 μM
# Source text: as §1, §2
# [5] = DLD-1 serum-starved cells, 100 μM, 3 hours
# [6] = DLD-1 starved cells, time course 15 min to 6 hours
smiles,measurement,setting,value
COc1ccc(C(c2c(C)n[nH]c2O)c2c(C)n[nH]c2O)cc1Oc1ccc([N+](=O)[O-])cc1 [Example P14B],cleaved caspase-3 expression,DLD-1-KO cells [1],undetectable
same,phosphorylation of AKT and ERK,[2],induced phosphorylation of AKT and ERK
same,cell viability,DLD-1-KO cells [3],not affected
same,AKT and ERK phosphorylation,"[4]; DLD-1 serum-starved cells (0.1% FCS), 100 μM",dramatically increased; also recorded: increases endogenous downstream RAS signaling
same,activation of AKT and ERK,[4]; [5],activated AKT and ERK kinases; also recorded: increase AKT and/or ERK signalling
same,relative capacity to activate Ras effectors ERK and AKT among the compounds,[4]; [5],most efficient; also recorded: greatest capacity to activate Ras signaling; also recorded: highest activation of both Ras effectors
same,duration of ERK phosphorylation compared with 10% FBS,[4]; [6],maintained for a longer time; also recorded: more sustained
same,onset of ERK and MEK activation compared with 10% FBS,[4]; [6],clearly delayed
same,cell viability,hTERT-RPE cells,not affected
